Measurements reported in article PMC8647500 (Molecular Brain, 2021).
Counter-ions that a name gives are not always drawn.

Tests used:
[1] = system: GRABNE1m; assay: Dual-color time-lapse imaging in HeLa cells co-expressing DA1.2 and NE1m, green channel; type: cell-based; conditions: for NE1m fluorescence response to ligand: NE 1 µM then DA 5 µM
Protocol: (§1) Stock solutions for the compounds were dissolved in the appropriate vehicle, and a volume from 0.95 to 1 µl was prepared in each 1.5-ml microcentrifuge tube. Compounds were mixed with 0.5 ml imaging buffer from the well and applied to the same well at each time point during imaging (Additional file 1: Fig. S4b). For temperature equilibration of the imaging buffer, 0.5 ml of the imaging buffer was transferred from the well into an empty 1.5-ml microcentrifuge tube and then applied to the buffer in the same well; this procedure repeated 5 times (Additional file 1: Fig. S4c). The procedure for the compound application in the time-lapse imaging is shown in Additional file 1: Fig. S5. The ‘ligand’ dissolved in the appropriate vehicle was applied at the imaging time point shown by the arrow; the ‘vehicle’ was applied at the same time point.
We used Fiji, a distribution of ImageJ [44], for the preparation of quantification and measurement of all imaging files. Principally, for all images, the background was subtracted, and images were registered by StackReg (http://bigwww.epfl.ch/thevenaz/stackreg/), a Fiji plugin to correct misregistration, if required. Note that the median filter was used for the time-lapse images of the neuron before registration to remove camera noise preventing registration. Then, regions of interests (ROIs) were selected for the first time point in time-lapse imaging or in the images before the compound application, to surround the whole cell body for HeLa cells and a dendrite near the cell body for hippocampal neurons. […] In order to normalize the fluorescence changes with the amount of biosensor expression, ΔF/F0 was calculated using the intensity before the compound application. For the time-lapse experiments, the value used for F0 was the mean intensity before compound application. The image of fluorescence change (ΔF/F0) was represented as the pseudocolor intensity-modulated display mode, where color represents the relative ratio value, whilst the brightness of the color represented the fluorescence intensity of the source images. […]

[2] = system: GRABNE1m; assay: Dual-color time-lapse imaging in rat primary hippocampal neurons co-expressing DA1.2 and NE1m, green channel; type: cell-based
Protocol: (§2) Primary cultures of rat hippocampal neurons were prepared similarly to that described previously. Female pregnant Wistar/ST rats (total 8 rats) arrived from Japan SLC on the day of the experiment. A pregnant rat with embryonic rats (embryonic days 19) was killed by CO2 inhalation and then embryos (10 embryos per pregnant rat) were removed and decapitated. […] To dissociate hippocampal neurons, hippocampi were treated with 10 units/ml papain (LS003126, Worthington Biochemical) for 10 min at 37 °C. […] Half of the medium was removed and replaced with fresh medium every 7 days.
(§3) Stock solutions for the compounds were dissolved in the appropriate vehicle, and a volume from 0.95 to 1 µl was prepared in each 1.5-ml microcentrifuge tube. […]
(§4) We used Fiji, a distribution of ImageJ [44], for the preparation of quantification and measurement of all imaging files. […] In order to normalize the fluorescence changes with the amount of biosensor expression, ΔF/F0 was calculated using the intensity before the compound application. […] The image of fluorescence change (ΔF/F0) was represented as the pseudocolor intensity-modulated display mode, where color represents the relative ratio value, whilst the brightness of the color represented the fluorescence intensity of the source images. […]

[3] = target: T1, R-GenGAR-DA1.2 (Homo sapiens, UniProt P21728); assay: Dual-color time-lapse imaging in rat primary hippocampal neurons co-expressing DA1.2 and NE1m, red channel; type: cell-based
T1 sequence (P21728 with tags, fused parts or gaps): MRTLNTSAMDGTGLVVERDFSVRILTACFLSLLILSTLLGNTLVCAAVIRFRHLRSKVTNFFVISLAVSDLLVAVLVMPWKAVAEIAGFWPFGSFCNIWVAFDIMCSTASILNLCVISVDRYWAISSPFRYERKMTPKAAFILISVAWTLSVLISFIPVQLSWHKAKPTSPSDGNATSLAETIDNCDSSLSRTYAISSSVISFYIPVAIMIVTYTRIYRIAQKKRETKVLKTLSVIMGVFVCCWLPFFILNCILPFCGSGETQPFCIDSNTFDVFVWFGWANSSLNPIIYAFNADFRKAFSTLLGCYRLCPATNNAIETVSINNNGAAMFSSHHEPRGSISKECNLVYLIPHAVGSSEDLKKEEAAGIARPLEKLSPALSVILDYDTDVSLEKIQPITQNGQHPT
T1 sequence (Q9U6Y8 with tags, fused parts or gaps partner): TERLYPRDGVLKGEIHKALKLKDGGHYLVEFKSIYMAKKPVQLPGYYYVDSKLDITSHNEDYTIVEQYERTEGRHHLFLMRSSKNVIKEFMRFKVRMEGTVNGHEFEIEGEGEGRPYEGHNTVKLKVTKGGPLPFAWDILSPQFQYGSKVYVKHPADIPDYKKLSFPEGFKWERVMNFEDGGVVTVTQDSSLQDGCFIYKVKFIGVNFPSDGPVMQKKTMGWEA
Protocol: as §2, §3, §4

[4] = target: T1, R-GenGAR-DA1.2; assay: Dual-color time-lapse imaging in HeLa cells co-expressing DA1.2 and NE1m, red channel; type: cell-based
Protocol: as §1, §4

[5] = target: T1, R-GenGAR-DA1.2; conditions: HeLa cells, all compounds 10 µM
Protocol: Stock solutions for the compounds were dissolved in the appropriate vehicle, and a volume from 0.95 to 1 µl was prepared in each 1.5-ml microcentrifuge tube. Compounds were mixed with 0.5 ml imaging buffer from the well and applied to the same well at each time point during imaging (Additional file 1: Fig. S4b). For temperature equilibration of the imaging buffer, 0.5 ml of the imaging buffer was transferred from the well into an empty 1.5-ml microcentrifuge tube and then applied to the buffer in the same well; this procedure repeated 5 times (Additional file 1: Fig. S4c). […] The ‘ligand’ dissolved in the appropriate vehicle was applied at the imaging time point shown by the arrow; the ‘vehicle’ was applied at the same time point.

[6] = target: T1, R-GenGAR-DA1.2; conditions: rat primary hippocampal neurons
Protocol: Primary cultures of rat hippocampal neurons were prepared similarly to that described previously [40]. Female pregnant Wistar/ST rats (total 8 rats) arrived from Japan SLC on the day of the experiment. A pregnant rat with embryonic rats (embryonic days 19) was killed by CO2 inhalation and then embryos (10 embryos per pregnant rat) were removed and decapitated. […] To dissociate hippocampal neurons, hippocampi were treated with 10 units/ml papain (LS003126, Worthington Biochemical) for 10 min at 37 °C. […] Half of the medium was removed and replaced with fresh medium every 7 days.

NC[C@H](O)c1ccc(O)c(O)c1 [NE, L-noradrenaline bitartrate monohydrate]
NE1m fluorescence response to ligand [1]: increase in green fluorescence | NE1m fluorescence response to ligand ([2]; NE 1 µM): increase in NE1m green fluorescence | DA1.2 fluorescence response to ligand ([3]; NE 1 µM then DA 5 µM): not NE | DA1.2 fluorescence response to ligand ([4]; NE 1 µM then DA 5 µM): not to NE

CN1CCc2cc(Cl)c(O)cc2[C@@H](c2ccccc2)C1 [SCH, R( +)-SCH 23390 hydrochloride]
effect of antagonist on the response of DA1.2 to DA [5]: blocked | effect of antagonist on DA1.2 response to DA ([3]; SCH 5 µM): restored | effect of antagonist applied after DA on DA1.2 fluorescence ([6]; SCH 5 µM after DA 5 µM): restored to baseline | effect of antagonist pretreatment on response of DA1.2 to DA ([6]; SCH before DA): completely suppressed | effect of antagonist on DA1.2 response to DA ([4]; SCH 5 µM): blocked

NCCc1ccc(O)c(O)c1 [DA, Dopamine]
NE1m fluorescence response to ligand [1]: not DA

COC(=O)[C@@H]1[C@H]2C[C@H]3c4[nH]c5ccccc5c4CCN3C[C@@H]2CC[C@@H]1O [YO, yohimbine hydrochloride]
effect of antagonist on NE1m fluorescence response ([1]; YO 1 µM): recovered to its basal level | effect of antagonist on NE1m fluorescence response ([2]; YO 1 µM): blocked
